In patent publication US9624175B2, “Fused-bicyclic aryl quinolinone derivatives as mutant-isocitrate dehydrogenase inhibitors” (Forma Therapeutics, Inc., priority 2015, dated 2017):

Target: IDH1-R132H recombinant protein (Homo sapiens (Human), UniProt O75874, R132H)
Assay: IDH1-R132H enzymatic assay (NADPH consumption, diaphorase/resazurin readout)
Assay type: biochemical
Conditions: inhibition of NADPH consumption, 30 nM IDH1-R132H; read-out: Enzyme IDH1 R132H IC50
Protocol: Assays were performed in a 384-well black plate. An aliquot of 250 nL of compound was incubated with 10 μL of 30 nM IDH1-R132H or 10 nM IDH1-R132C recombinant protein in assay buffer (50 mM Tris pH=7.5, 150 mM NaCl, 5 mM MgCl2, 0.1% (w/v) Bovine Serum Albumin, and 0.01% Triton X-100) in each well at 25° C. for 15 minutes. After the plate was centrifuged briefly, an aliquot of 10 μL of 2 mM α-ketoglutarate and 20 μM NADPH solution prepared in assay buffer was then added to each well and the reaction was maintained at 25° C. for 45 minutes. An aliquot of 10 μL of diaphorase solution (0.15 U/mL diaphorase and 30 μM Resazurin in assay buffer) was added to each well. The plate was maintained at 25° C. for 15 minutes and then read on a plate reader with excitation and emission wavelengths at 535 nm and 590 nm, respectively. The IC50 of a given compound was calculated by fitting the dose response curve of inhibition of NADPH consumption at a given concentration with the four parameter logistic equation.

Chain of IDH1-R132H recombinant protein (O75874 whole entry R132H): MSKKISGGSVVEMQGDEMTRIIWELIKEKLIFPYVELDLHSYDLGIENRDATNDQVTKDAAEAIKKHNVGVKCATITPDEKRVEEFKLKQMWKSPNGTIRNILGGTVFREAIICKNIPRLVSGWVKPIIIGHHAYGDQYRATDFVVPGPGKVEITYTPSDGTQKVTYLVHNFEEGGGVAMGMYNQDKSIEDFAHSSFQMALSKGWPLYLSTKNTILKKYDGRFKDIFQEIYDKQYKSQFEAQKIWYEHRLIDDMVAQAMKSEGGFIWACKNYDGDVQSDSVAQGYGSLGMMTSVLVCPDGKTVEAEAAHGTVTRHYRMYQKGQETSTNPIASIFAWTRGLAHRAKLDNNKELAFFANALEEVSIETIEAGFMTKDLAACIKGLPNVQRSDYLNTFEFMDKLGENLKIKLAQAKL

Row | Structure (SMILES) | IC50
1 | O=c1[nH]c2cc(NCc3cc4cc(Cl)ccc4[nH]c3=O)ccc2o1 [Compound I-3, 6-chloro-3-{[(2-oxo-2,3-dihydro-1,3-benzoxazol-5-yl)amino]methyl}-1,2-dihydroquinolin-2-one] | 0.1 to 1 µM
2 | CN1C(=O)CCc2cc(NCc3cc4cc(Cl)ccc4[nH]c3=O)ccc21 [Compound I-5, 6-chloro-3-{[(1-methyl-2-oxo-1,2,3,4-tetrahydroquinolin-6-yl)amino]methyl}-1,2-dihydroquinolin-2-one] | 0.1 to 1 µM
3 | O=c1[nH]c2ccc(Cl)cc2cc1CNc1cc2ccccc2cn1 [Compound I-6, 6-chloro-3-{[(isoquinolin-3-yl)amino]methyl}-1,2-dihydroquinolin-2-one] | 1 to 10 µM
4 | N#Cc1ccc(NCc2cc3cc(Cl)ccc3[nH]c2=O)c2ccccc12 [Compound I-7, 4-{[(6-chloro-2-oxo-1,2-dihydroquinolin-3-yl)methyl]amino}naphthalene-1-carbonitrile] | 1 to 10 µM
5 | CN1C(=O)COc2cc(NCc3cc4cc(Cl)ccc4[nH]c3=O)ccc21 [Compound I-10, 7-{[(6-chloro-2-oxo-1,2-dihydroquinolin-3-yl)methyl]amino}-4-methyl-3,4-dihydro-2H-1,4-benzoxazin-3-one] | 1 to 10 µM
6 | O=C1COc2cc(NCc3cc4cc(Cl)ccc4[nH]c3=O)ccc2N1 [Compound I-11, 7-{[(6-chloro-2-oxo-1,2-dihydroquinolin-3-yl)methyl]amino}-3,4-dihydro-2H-1,4-benzoxazin-3-one] | 1 to 10 µM
7 | O=C1Cc2ccc(NCc3cc4cc(Cl)ccc4[nH]c3=O)cc2N1 [Compound I-13, 6-chloro-3-{[(2-oxo-2,3-dihydro-1H-indol-6-yl)amino]methyl}-1,2-dihydroquinolin-2-one] | > 10 µM
8 | O=c1[nH]c2ccc(Cl)cc2cc1CNc1cccc2ccncc12 [Compound I-15, 6-chloro-3-{[(isoquinolin-8-yl)amino]methyl}-1,2-dihydroquinolin-2-one] | > 10 µM
9 | O=c1[nH]c2ccc(Cl)cc2cc1CNc1cccc2c1OCCC2 [Compound I-16, 6-chloro-3-{[(3,4-dihydro-2H-1-benzopyran-8-yl)amino]methyl}-1,2-dihydroquinolin-2-one] | > 10 µM
10 | O=C1CCc2ccc(NCc3cc4cc(Cl)ccc4[nH]c3=O)cc2N1 [Compound I-18, 6-chloro-3-{[(2-oxo-1,2,3,4-tetrahydroquinolin-7-yl)amino]methyl}-1,2-dihydroquinolin-2-one] | > 10 µM
11 | Cc1n[nH]c2cc(NCc3cc4cc(Cl)ccc4[nH]c3=O)ccc12 [Compound I-19, 6-chloro-3-{[(3-methyl-1H-indazol-6-yl)amino]methyl}-1,2-dihydroquinolin-2-one] | > 10 µM
12 | O=C1CCc2cc(NCc3cc4cc(Cl)ccc4[nH]c3=O)ccc2N1 [Compound I-20, 6-chloro-3-{[(2-oxo-1,2,3,4-tetrahydroquinolin-6-yl)amino]methyl}-1,2-dihydroquinolin-2-one] | 1 to 10 µM
13 | COc1ccc2[nH]c(=O)c(CNc3ccc4sc(C)nc4c3)cc2c1 [Compound I-21, 6-methoxy-3-{[(2-methyl-1,3-benzothiazol-5-yl)amino]methyl}-1,2-dihydroquinolin-2-one] | > 10 µM
14 | O=C1CCCc2c(NCc3cc4cc(Cl)ccc4[nH]c3=O)cccc21 [Compound I-22, 6-chloro-3-{[(5-oxo-5,6,7,8-tetrahydronaphthalen-1-yl)amino]methyl}-1,2-dihydroquinolin-2-one] | > 10 µM
15 | O=c1[nH]c2ccc(Cl)cc2cc1CNc1ccc2scnc2c1 [Compound I-29, 3-{[(1,3-benzothiazol-5-yl)amino]methyl}-6-chloro-1,2-dihydroquinolin-2-one] | > 10 µM
16 | COc1ccc2[nH]c(=O)c(CNc3ccc4c(c3)OCCO4)cc2c1 [Compound I-30, 3-{[(2,3-dihydro-1,4-benzodioxin-6-yl)amino]methyl}-6-methoxy-1,2-dihydroquinolin-2-one] | > 10 µM
17 | Cc1cc2cc(CNc3ccc4cn[nH]c4c3)c(=O)[nH]c2cc1C [Compound I-31, 3-{[(1H-indazol-6-yl)amino]methyl}-6,7-dimethyl-1,2-dihydroquinolin-2-one] | > 10 µM
18 | Cc1ccc2cc(NCc3cc4cc(Cl)ccc4[nH]c3=O)ccc2n1 [Compound I-32, 6-chloro-3-{[(2-methylquinolin-6-yl)amino]methyl}-1,2-dihydroquinolin-2-one] | > 10 µM

Now from value to compound:

Row | IC50 | Structure (SMILES)
19 | 0.1 to 1 µM | Cn1c(=O)oc2ccc(NCc3cc4cc(Cl)ccc4[nH]c3=O)cc21 [Compound I-2, 6-chloro-3-{[(3-methyl-2-oxo-2,3-dihydro-1,3-benzoxazol-5-yl)amino]methyl}-1,2-dihydroquinolin-2-one]
20 | 1 to 10 µM | O=c1[nH]c2ccc(Cl)cc2cc1CNc1cccc2cccnc12 [Compound I-8, 6-chloro-3-{[(quinolin-8-yl)amino]methyl}-1,2-dihydroquinolin-2-one]
21 | 1 to 10 µM | O=c1[nH]c2ccc(Cl)cc2cc1CNc1cccc2c1OCC2 [Compound I-9, 6-chloro-3-{[(2,3-dihydro-1-benzofuran-7-yl)amino]methyl}-1,2-dihydroquinolin-2-one]
22 | > 10 µM | COc1cc2cc(CNc3ccc4[nH]c(-c5ccc6[nH]cnc6c5)nc4c3)c(=O)[nH]c2cc1OC [Compound I-12, 3-({[2-(1H-1,3-benzodiazol-5-yl)-1H-1,3-benzodiazol-5-yl]amino}methyl)-6,7-dimethoxy-1,2-dihydroquinolin-2-one]
23 | > 10 µM | Cn1c(=O)oc2cc(NCc3cc4cc(Cl)ccc4[nH]c3=O)ccc21 [Compound I-14, 6-chloro-3-{[(3-methyl-2-oxo-2,3-dihydro-1,3-benzoxazol-6-yl)amino]methyl}-1,2-dihydroquinolin-2-one]
24 | > 10 µM | COc1cc2c(cc1NCc1cc3cc(Cl)ccc3[nH]c1=O)NC(=O)CC2 [Compound I-17, 6-chloro-3-{[(6-methoxy-2-oxo-1,2,3,4-tetrahydroquinolin-7-yl)amino]methyl}-1,2-dihydroquinolin-2-one]
25 | > 10 µM | O=c1[nH]c2ccc(Cl)cc2cc1CNc1ccc2nncn2n1 [Compound I-23, 6-chloro-3-[({[1,2,4]triazolo[4,3-b]pyridazin-6-yl}amino)methyl]-1,2-dihydroquinolin-2-one]
26 | > 10 µM | O=c1[nH]c2ccc(Cl)cc2cc1CNc1ccc2[nH]cnc2c1 [Compound I-24, 3-{[(1H-1,3-benzodiazol-5-yl)amino]methyl}-6-chloro-1,2-dihydroquinolin-2-one]
27 | > 10 µM | O=c1[nH]c2ccc(Cl)cc2cc1CNc1ccc2cn[nH]c2c1 [Compound I-25, 6-chloro-3-{[(1H-indazol-6-yl)amino]methyl}-1,2-dihydroquinolin-2-one]
28 | > 10 µM | O=c1[nH]c2ccc(Cl)cc2cc1CNc1ccc2ncsc2c1 [Compound I-26, 3-{[(1,3-benzothiazol-6-yl)amino]methyl}-6-chloro-1,2-dihydroquinolin-2-one]
29 | > 10 µM | O=c1[nH]c2ccc(Cl)cc2cc1CNc1ccc2ncccc2c1 [Compound I-27, 6-chloro-3-{[(quinolin-6-yl)amino]methyl}-1,2-dihydroquinolin-2-one]
30 | > 10 µM | O=c1[nH]c2ccc(Cl)cc2cc1CNc1ccc2[nH]c(C(F)(F)F)nc2c1 [Compound I-28, 6-chloro-3-({[2-(trifluoromethyl)-1H-1,3-benzodiazol-5-yl]amino}methyl)-1,2-dihydroquinolin-2-one]
